{"source": "patent US20220184003A1", "about": "“Formulations of Cannabidiol Derivatives and Their Use as Modulators of Cannabinoid Receptor Type 2 (CB2)” (EMERALD HEALTH PHARMACEUTICALS INC, priority 2019, published 2022)", "key": {"physchem [1]": {"assay": "physchem", "conditions": "pH 7.4", "source_text": "Lipophilicity is a key determinant of the PK behavior of drugs. It can influence distribution into tissues, absorption and the binding characteristics of a drug, as well as being an important factor in determining the solubility of a compound. Log D (distribution co-efficient) is used as a measure of lipophilicity.\nThe solution was transferred to tubes, centrifuged and the supernatant is drawn off the top, leaving any solid compound in the bottom. This supernatant was then syringe filtered through 0.2 μm filters to produce the initial solution. Three vials were prepared containing values. […] The vials were mixed to equilibrium, then centrifuged to ensure the two phases were fully separated before the octanol was removed and the buffer samples analyzed. For the quantitative analysis, the aqueous solutions were analyzed by LC MS/MS. The amount of VCE-004.8 in each vial was quantified against a 6 points standard curve which was produced by serially diluting the initial solution. Log D was calculated using the equation, shown in FIG. 7, wherein ConcINITlAL is a concentration of compound in the initial aqueous solution, ConcFINAL is a concentration of compound in final aqueous phase, Vaq is a volume of aqueous phase, and Voct is a volume of octanol phase."}, "physchem [2]": {"assay": "physchem", "type": "physicochemical", "conditions": "for solubility at 24 h / solubility at 24 hr: thermodynamic from solid", "method": "A quantitative thermodynamic solubility determination on VGE-004.8 was performed. Suspensions of VCE-004.8 were prepared in different pharmaceutical vehicles and organic solvents. The organic solvents, lipid and co-solvent vehicles consisted of pure solvent or lipid, while the cyclodextrin solutions were prepared in phosphate buffer pH 7.0. […] The concentration of VCE-004.8 in solution was determined by HPLC analysis."}, "[3]": {"assay": "Stability of VCE-004.8 during phytosomization (reflux in ethyl acetate)", "type": "physicochemical", "conditions": "area %", "method": "FIG. 8 depicts a stability of VCE-004.8 during phytosomization, at reflux in ethyl acetate at different times (45 min, 6 hr and 24 hr).\nA preliminary investigation of the compound stability gave indication that the active principle is stable in the process conditions, although an impurity peak not detected in the starting material and almost neglectable at […], increased after 6 hr (1.7% in area %) and grew after 24 hr (6.2% in area %), as shown in FIG. 8."}, "[4]": {"assay": "Stress test of VCE-004.8 drug substance", "type": "physicochemical", "method": "A stress test was performed concluding that VCE-004.8 drug substance is stable for 3 days at 65° C.+/−5° C. in glass vials. […] A short-term stability study at 40° C. was completed with indecisive results due to the early development stage of the impurity method."}, "[5]": {"system": "Theiler Murine Encephalomyelitis Virus-induced demyelmating disease model (TMEV)", "assay": "TMEV model", "type": "in vivo, mice", "source_text": "2) Theiler Murine Encephalomyelitis Virus-induced demyelmating disease model (TMEV) that mimics progressive forms of MS."}, "[6]": {"system": "TGFβ-induced Col1A2 gene transcription and collagen synthesis", "assay": "TGFβ-induced fibrotic responses in vitro", "type": "cell-based"}, "[7]": {"system": "cuprizone/rapamycin (C/R) mouse model", "assay": "Cuprizone/rapamycin model, myelin assessment in grey and white matter", "type": "in vivo, Male C57BL/6J", "method": "Myelin assessment in grey and white matter was evaluated via: (1) PLP staining and density in the hippocampus and cortex; and (2) PPD staining and manual counts in the corpus callosum.\nMale C57BL/6J (n=5 or 12/group) were treated for 12 weeks with C/R to cause demyelination of white and gray matter regions of the brain. […] Thereafter, the brains were harvested and processed for immunohistochemical staining and quantification of myelinated axons in gray matter (hippocampus (HIP), cerebral cortex (CTX)) by proteolipid protein (PLP) staining and white matter (corpus callosum CC)) by paraphenylenediamine (PPD) staining."}, "[8]": {"conditions": "oral 5, 10, 20 mg/kg/day for 6 weeks, vs vehicle control"}}, "note": "Read-outs that look alike come from different tables or passages of the source."}
{"molecule": "C=C(C)C1CCC(C)=C[C@H]1C1=C(O)C(=O)C(CCCCC)=C(NCc2ccccc2)C1=O", "note": "(stereo partly drawn) [VCE-004.8, (1′R,6′R)-3-(Benzylamine)-6-hydroxy-3′-methyl-4-pentyl-6′-(prop-1-en-2-yl)[1,1′-bi(cyclohexane)]-2′,3,6-triene-2,5-dione]", "values": [{"measurement": "logD", "setting": "physchem [1]", "result": "> 5"}, {"measurement": "Solubility class", "setting": "physchem [2]", "result": "practically insoluble"}, {"measurement": "solubility at 24 h", "setting": "physchem [2]; 25 °C, oil or lipid, Solubility", "result": 35700, "unit": "µg/mL"}, {"measurement": "solubility at 24 h", "setting": "physchem [2]; 25 °C, oil or lipid, Solubility class (Ph. Eur.)", "result": "33000 to 100000", "unit": "µg/mL"}, {"measurement": "solubility at 24 h", "setting": "physchem [2]; 25 °C, pH 1, simulated gastric fluid, Solubility", "result": "< 8", "unit": "µg/mL"}, {"measurement": "solubility at 24 h", "setting": "physchem [2]; 25 °C, pH 1, simulated gastric fluid, Solubility class (Ph. Eur.)", "result": "< 100", "unit": "µg/mL"}, {"measurement": "solubility at 24 h", "setting": "physchem [2]; 25 °C, pH 2, aqueous buffer, Solubility", "result": "< 8", "unit": "µg/mL"}, {"measurement": "solubility at 24 h", "setting": "physchem [2]; 25 °C, pH 5, aqueous buffer, Solubility", "result": "< 8", "unit": "µg/mL"}, {"measurement": "solubility at 24 h", "setting": "physchem [2]; 25 °C, pH 5, aqueous buffer, Solubility class (Ph. Eur.)", "result": "< 100", "unit": "µg/mL"}, {"measurement": "solubility at 24 hr", "setting": "physchem [2]; 25 °C, pH 7, aqueous buffer, Solubility", "result": "< 8", "unit": "µg/mL"}, {"measurement": "solubility at 24 hr", "setting": "physchem [2]; 25 °C, pH 7, aqueous buffer, Solubility class (Ph. Eur.)", "result": "< 100", "unit": "µg/mL"}, {"measurement": "solubility at 24 h", "setting": "physchem [2]; 25 °C, pH 7, aqueous with cosolvent or surfactant or cyclodextrin, Solubility class (Ph. Eur.)", "result": "< 100", "unit": "µg/mL"}, {"measurement": "solubility at 24 hr", "setting": "physchem [2]; 25 °C, pH 9, aqueous buffer, Solubility", "result": "< 8", "unit": "µg/mL"}, {"measurement": "solubility at 24 hr", "setting": "physchem [2]; 25 °C, pH 9, aqueous buffer, Solubility class (Ph. Eur.)", "result": "< 100", "unit": "µg/mL"}, {"measurement": "solubility at 24 h", "setting": "physchem [2]; 37 °C, oil or lipid, Solubility", "result": 23700, "unit": "µg/mL"}, {"measurement": "Solubility class (Ph. Eur.)", "setting": "physchem [2]; pH 2", "result": "Practicalty insoluble"}, {"measurement": "Solubility class", "setting": "physchem [2]; pH 7", "result": "practically insoluble"}, {"measurement": "impurity peak", "setting": "[3]; after 6 hr at reflux in ethyl acetate", "result": 1.7, "unit": "%"}, {"measurement": "impurity peak", "setting": "[3]; after 24 hr at reflux in ethyl acetate", "result": 6.2, "unit": "%"}, {"measurement": "stress test: stable for", "setting": "[4]; 65° C.+/−5° C. in glass vials", "result": 3, "unit": "days"}, {"measurement": "temperatures at which degradation of the product was observed", "setting": "[4]; stress test", "result": "above 65 °C"}, {"measurement": "axonal disorganization", "setting": "[5]; TMEV mice", "result": "prevented"}, {"measurement": "clinical severity and neuropathology", "setting": "[5]; TMEV model, actimeter test", "result": "attenuated"}, {"measurement": "microglial reactivity and infiltration of inflammatory cells", "setting": "[5]; TMEV-infected mice", "result": "significantly reduced"}, {"measurement": "motor deficits", "setting": "[5]; mice infected with Theiler's virus", "result": "ameliorated"}, {"measurement": "demyelination", "setting": "[5]; spinal cord of TMEV mice", "result": "significantly reduced"}, {"measurement": "number of infiltrated CD4+ T cells and immune cells", "setting": "[5]; spinal cord of TMEV mice", "result": "reduced"}, {"measurement": "TGFβ-induced Col1A2 gene transcription and collagen synthesis", "setting": "[6]", "result": "inhibited"}, {"measurement": "TGFβ-mediated myofibroblast differentiation", "setting": "[6]", "result": "inhibited"}, {"measurement": "wound-healing activity", "setting": "[6]", "result": "impaired"}, {"measurement": "levels of myelinated axons in white matter (corpus callosum), dose relation", "setting": "[7]", "result": "dose related effect"}, {"measurement": "area of PLP staining / myelination in the cortex", "setting": "[7]; [8]", "result": "no significant increase"}, {"measurement": "area of PLP staining / myelination in the hippocampus", "setting": "[7]; [8]", "result": "no significant increase"}]}
